Source: patent US4668688A, “N-substituted isoquinoline derivatives and pharmaceutical compositions containing them” (Richter Gedeon Vegyeszeti Gyar R.T., priority 1983, dated 1987)
Like-named read-outs stand apart in the source and are kept apart here.

Legend:
Tetrabenazine Catalepsy = experiment: Inhibition of Tetrabenazine Catalepsy (rats); type: in vivo, male Han. Wistar (LATI) rats; settings: for Antitetrabenazine activity (%): rats, 30 mg/kg intraperitoneally, one hour before tetrabenazine
Procedure: (§1) For the pharmacological tests CFLP (LATI) mice of both sexes, weighing 18 to 22 g each and male Han. Wistar (LATI) rats weighing 160 to 180 g each were used. The test materials were administered orally, in 30 mg/kg doses, in the form of a suspension containing 5% of Tween 80, one hour before the tests.
3. Inhibition of Tetrabenazine Catalepsy
The test was carried out on male rats each weighing 160 to 180 g. The test materials were administered intraperitoneally, in a dose of 30 mg/kg, one hour before tetrabenazine administration.

Metrazole Spasm = Metrazole Spasm (mice), antispasm activity; type: in vivo, CFLP (LATI) mice; settings: for Antispasm activity metrazole b: b) tonic extensoric spasm, 30 mg/kg orally
Procedure: as §1

Hyperthermia = experiment: Antipyretic Activity (rats), Brewer's yeast hyperthermia; type: in vivo, male Han. Wistar (LATI) rats; settings: 30 mg/kg orally, 4 h after yeast, % of animals at least one centigrade lower than control
Procedure: as §1
5. Antipyretic Activity (rats)
Hyperthermia is induced in rats with Brewer's yeast suspension (0.5% of Brewer's yeast, 1% of arabic gum in a volume of 0.3 ml, s.c.). The animals are treated with the test materials 4 hours later, and the tracheal temperature of the animals is registered with an ELAB thermometer (typ. TE-3) for 4 hours.

writhing syndrom = experiment: Analgesic Activity (mice), acetic acid writhing syndrom; type: in vivo, CFLP (LATI) mice; settings: for ED50: Mus musculus, po, read-out: Analgesic activity, ED50
Procedure: as §1, with “tests. 4. Analgesic Activity (mice) One hour after pretreatment, mice were administered 0.4 ml of a 0.6% acetic acid solution intraperitoneally, as a pain stimulus. The frequency of writhing syndrom is registered for 30 minutes.” for “tests.”

[1] = mice, pentylenetetrazole 125 mg/kg s.c.

SMILES | Antitetrabenazine activity (%) (Tetrabenazine Catalepsy) | antidepressive effect (in words) (Tetrabenazine Catalepsy; test not given) | Antispasm activity metrazole b (Metrazole Spasm; [1]) | anticonvulsive effect (in words) (Metrazole Spasm; test not given) | Antipyretic activity (%) (Hyperthermia) | ED50 (writhing syndrom; value marked ^x = ED50, mice, orally, 0.6% acetic acid i.p. writhing) [mg/kg] | analgesic activity (in words) (writhing syndrom; acetic acid writhing, mice) | analgesic activity relative to reference compound (Na-salicylate) (writhing syndrom; acetic acid writhing, mice) | ED50 (Metrazole Spasm; Mus musculus, po; value marked ^x = ED50; b) tonic extensoric spasm, mice, orally, pentylenetetrazole 125 mg/kg s.c.) [mg/kg] | Analgesic activity (%) (writhing syndrom; mice, 30 mg/kg orally, 0.4 ml 0.6% acetic acid i.p., 30 minutes, vs control) | influence on writhing syndrom induced with acetic acid (in words) (writhing syndrom; 30 mg/kg dose, mice) | ED50 (writhing syndrom) [mg/kg]
COc1cc2c(cc1OC)C(C(CO)CO)N(C)CC2.Cl (centres unmarked) [Compound A, 1-[bis(hydroxymethyl)-methyl]-2-methyl-6,7-dimethoxy-1,2,3,4-tetrahydroisoquinoline hydrochloride] | 20.0 | remarkable anticonvulsive and antidepressive effects | 20.0 | remarkable anticonvulsive and antidepressive effects | 20.0 | 28 | valuable analgesic activity | four times more active than the reference compound | – | – | – | –
CCOc1cc2c(cc1OCC)C(C(CO)CO)N(CC(O)CC)CC2.Cl (stereo not drawn) [Compound B, 1-[bis-(Hydroxymethyl)-methyl]-2-(β-hydroxybutyl)6,7-diethoxy-1,2,3,4-tetrahydroisoquinoline hydrochloride] | 20.0 | – | – | – | 20.0 | – | somewhat lower analgesic activity than the above 2-methyl-compound | – | 20 | 40.0 | – | –
O=C(O)c1ccccc1O [Na--salicylate, Na-salicylate, reference compound] | – | – | 20.0 | – | 40.0 | – | – | – | – | – | practically not influenced | 113
